We go through two molecules from patent US9060928B2, “Tacrolimus injection preparation” (FUZHOU HARVESTER PHARMACEUTICAL R&D CO., LTD., priority 2009, dated 2015).

For data set [1] the following is noted: cited from earlier work.
In data set [2] the test system is guinea pigs. The experiment in a line: Hypersensitivity test in animals. The data set is classed as in vivo. The procedure: 18 healthy guinea pigs weighed 250-350 g were divided into 3 groups (a test group, a negative control group, and a positive control group) of 6 animals each at random. […] In 15 min after the injection, the hypersensitive responses of the injected guinea pigs were observed. A positive response was determined if two or more of piloerection, dyspnea, or 3 cough sounds, or one of twitch, collapse or death appeared.

Turning to `C=CC[C@@H]1/C=C(\C)C[C@H](C)C[C@H](OC)[C@H]2O[C@@](O)(C(=O)C(=O)N3CCCC[C@H]3C(=O)O[C@H](/C(C)=C/[C@@H]3CC[C@@H](O)[C@H](OC)C3)[C@H](C)[C@@H](O)CC1=O)[C@H](C)C[C@@H]2OC` (relative stereo) [tacrolimus, [3S—[3R*[E(1S*,3S*,4S*)],4S*,5R*,8S*,9E,12R*,14R*,15S*,16R*,18S*,19S*,26aR*]]-5,6,8,11,12,13,14,15,16,17,18,19,24,25,26a-hexa-decahydro-5,19-dihydroxy-3-[2-(4-hydroxy-3-methoxycyclohexyl)-1-methylethenyl]-14,16-dimethoxy-4,10,12,18-tetramethyl-8-(2-propenyl)-15,19-epoxy-3H-pyrido[2,1-c][1,4]oxazacyclotricosene-1,7,20,21(4H,23H)-tetrone, monohydrate], in data set [1] (organic solvents (such as methanol, ethanol, or acetone)), the “Solubility in organic solvents” value is reported as “freely soluble”. For the same molecule, in data set [1] (water), the Solubility in water entry is “practically insoluble”.

B1: 10% ovalbumin solution: 10% ovalbumin solution, positive control of the hypersensitivity test (protein, UniProt P01012 2-386, looked up)
Ovalbumin: GSIGAASMEFCFDVFKELKVHHANENIFYCPIAIMSALAMVYLGAKDSTRTQINKVVRFDKLPGFGDSIEAQCGTSVNVHSSLRDILNQITKPNDVYSFSLASRLYAEERYPILPEYLQCVKELYRGGLEPINFQTAADQARELINSWVESQTNGIIRNVLQPSSVDSQTAMVLVNAIVFKGLWEKAFKDEDTQAMPFRVTEQESKPVQMMYQIGLFRVASMASEKMKILELPFASGTMSMLVLLPDEVSGLEQLESIINFEKLTEWTSSNVMEERKIKVYLPRMKMEEKYNLTSVLMAMGITDVFSSSANLSGISSAESLKISQAVHAAHAEINEAGREVVGSAEAGVDAASVSEEFRADHPFLFCIKHIATNAVLFFGRCVSP
Take B1: the “Occurrence of hypersensitive response” value in data set [2] (guinea pigs, n = 6, intraperitoneal sensitization, intravenous boost at days 14 and 21, animals responding/total) was 6/6. Besides, the “Hypersensitive response of positive control (in words)” value in data set [2] (in 1 min after two times of intravenous administration, 6 guinea pigs) is “cough, respiratory depression, and twitch to death occur to all of the 6 guinea pigs”.
